ChEMBL document CHEMBL3259686, “Biologically active dichapetalins from Dichapetalum gelonioides” (J Nat Prod, 2014)
Calls of active or inactive are those of the source. The calls are words filed in the database; no cut-off is given here.

Tests used:
[1] = test system: Spodoptera exigua; experiment: Antifeedant activity against beet armyworm after 24 hrs; type: functional, organism-based
[2] = test system: Panagrellus redivivus; experiment: Nematicidal activity against Panagrellus redivivus assessed as mortality at 100 ug/ml after 72 hrs by light binocular microscopic analysis (reference value: 7.1 +/- 0.9%); type: functional
[3] = test system: Fusarium oxysporum f. sp. niveum; experiment: Antifungal activity against Fusarium oxysporum f. sp. niveum at 50 ug/disc after 2 days by disk diffusion method; type: functional; details: for zone of inhibition at 50 µg/disc: 48 h, read-out: DIZ
[4] = Antifungal activity against Cylindrocarpon musae at 50 ug/disc after 2 days by disk diffusion method; type: functional
[5] = test system: Colletotrichum gloeosporioides; experiment: Antifungal activity against Colletotrichum gloeosporioides at 50 ug/disc after 2 days by disk diffusion method; type: functional; details: for zone of inhibition at 50 µg/disc: 48 h, read-out: DIZ
[6] = test system: Rhizoctonia solani; experiment: Antifungal activity against Rhizoctonia solani at 50 ug/disc after 2 days by disk diffusion method; type: functional; details: for zone of inhibition at 50 µg/disc: 48 h, read-out: DIZ
[7] = test system: SW480; experiment: Cytotoxicity against human SW480 cells after 48 hrs by MTS assay; type: functional, cell-based; details: SW480, 48 h
[8] = test system: A549; experiment: Cytotoxicity against human A549 cells after 48 hrs by MTS assay; type: functional, cell-based; details: A549, 48 h
[9] = test system: SMMC-7721; experiment: Cytotoxicity against human SMMC7721 cells after 48 hrs by MTS assay; type: functional, cell-based; details: SMMC-7721, 48 h
[10] = test system: HL-60; experiment: Cytotoxicity against human HL60 cells after 48 hrs by MTS assay; type: functional, cell-based; details: HL-60, 48 h
[11] = test system: MCF7; experiment: Cytotoxicity against human MCF7 cells after 48 hrs by MTS assay; type: functional, cell-based; details: MCF7, 48 h
[12] = test system: RAW264.7; experiment: Cytotoxicity against mouse RAW264.7 cells by MTT assay; type: cell-based
[13] = test system: RAW264.7; experiment: Ratio of MG132 IC50 to compound IC50 for LPS-induced nitric oxide production in mouse RAW264.7 cells; type: functional
[14] = test system: RAW264.7; experiment: Inhibition of LPS-induced nitric oxide production in mouse RAW264.7 cells by Griess method; type: functional, cell-based
[15] = Cytotoxicity against human WM266.4 cells; type: functional, cell-based; details: WM 266-4
[16] = test system: HCT-116; experiment: Cytotoxicity against human HCT116 cells; type: functional, cell-based

C/C(=C\[C@H]1C[C@@H]([C@@H]2CC=C3[C@]4(C)[C@H](O)C[C@@H]5[C@](C)(CC=C6C[C@@H](c7ccccc7)OC[C@@]65C)[C@H]4CC[C@]32C)C(=O)O1)CO
EC50 [1]: 3.4 microg/cm2 | mortality at 100 µg/mL [2]: 3%

NYSTATIN
inhibition zone (IZ) [3]: 12 mm | inhibition zone (IZ) [4]: 16.6 mm | inhibition zone (IZ) [5]: 14.5 mm | inhibition zone (IZ) [6]: 14.7 mm

C[C@]1(OC(=O)C[C@@H](O)c2ccc(O)cc2)CO[C@@]2(C1)OC(=O)[C@H]([C@@H]1CC[C@]34C[C@]13C=C[C@@H]1[C@@]3(C)CC=C5C[C@@H](c6ccccc6)OC[C@]5(C)[C@@H]3CC(=O)[C@]14C)[C@H]2O
IC50 [7]: 21 µM | IC50 [8]: 3 µM | IC50 [9]: 18.7 µM | IC50 [10]: 5.1 µM | IC50 [11]: 3.5 µM

COc1ccc([C@@H]2CC3=CC[C@@]4(C)[C@@H](CC(=O)[C@]5(C)[C@@H]4C=C[C@]46C[C@@]45CC[C@H]6[C@@H]4C[C@@]5(OC[C@](C)(OC(=O)CCc6ccc(O)cc6)[C@H]5O)OC4=O)[C@@]3(C)CO2)cc1
EC50 [1]: 28.9 microg/cm2 | IC50 [7]: > 40 µM | mortality at 100 µg/mL [2]: 7.8% | IC50 [8]: > 40 µM | IC50 [9]: > 40 µM | IC50 [10]: > 40 µM | IC50 [11]: > 40 µM

COC(=O)[C@@H](Cc1cc(C)co1)[C@@H]1CC[C@]23C[C@]12C=C[C@@H]1[C@@]2(C)CC=C4C[C@@H](c5ccccc5)OC[C@]4(C)[C@@H]2CC(=O)[C@]13C
EC50 [1]: > 100 microg/cm2 | IC50 [7]: > 40 µM | mortality at 100 µg/mL [2]: 2.5% | IC50 [8]: 17.6 µM | IC50 [9]: 24.8 µM | IC50 [10]: 10.2 µM | IC50 [11]: 21 µM

C/C(=C\[C@H]1C[C@@H]([C@@H]2CC[C@]34C[C@]23C=C[C@@H]2[C@@]3(C)CC=C5C[C@@H](c6ccccc6)OC[C@]5(C)[C@@H]3C[C@@H](O)[C@]24C)C(=O)O1)CO [DICHAPETALIN A]
EC50 [1]: 3.1 microg/cm2 | mortality at 100 µg/mL [2]: 15.3% | Activity [12]: Non-toxic | Ratio IC50 [13]: 20 | IC50 [14]: 0.02 µM | diameter of the inhibition zone (DIZ) [3]: inactive | inhibition zone (IZ) [4]: 12.8 mm | diameter of the inhibition zone (DIZ) [5]: inactive | zone of inhibition at 50 µg/disc [6]: 10.5 mm

COc1ccc([C@@H]2CC3=CC[C@]4(C)[C@H]5C=C[C@]67C[C@]6(CC[C@H]7[C@@H]6C[C@H](/C=C(\C)CO)OC6=O)[C@]5(C)[C@H](O)C[C@H]4[C@@]3(C)CO2)cc1 [DICHAPETALIN K]
mortality at 100 µg/mL [2]: 4.4%

COC(=O)[C@@H](C[C@@]1(OC)C[C@](C)(O)CO1)[C@@H]1CC[C@]23C[C@]12C=C[C@@H]1[C@@]2(C)CC=C4C[C@@H](c5ccccc5)OC[C@]4(C)[C@@H]2CC(=O)[C@]13C
EC50 [1]: 3.1 microg/cm2

CC(=O)O[C@@]1(C)CO[C@@]2(C1)OC(=O)[C@H]([C@@H]1CC[C@]34C[C@]13C=C[C@@H]1[C@@]3(C)CC=C5C[C@@H](c6ccccc6)OC[C@]5(C)[C@@H]3[C@@H](O)C(=O)[C@]14C)[C@H]2O
EC50 [15]: 0.078 µM | EC50 [16]: 0.0099 µM

C[C@]12CC=C3C[C@@H](c4ccccc4)OC[C@]3(C)[C@@H]1C[C@@H](O)[C@]1(C)[C@@H]2C=C[C@]23C[C@]12CC[C@H]3[C@@H]1C[C@@]2(OC[C@](C)(OC(=O)CCc3ccc(O)cc3)[C@H]2O)OC1=O
EC50 [1]: 9.8 microg/cm2 | mortality at 100 µg/mL [2]: 61.8%

C[C@]1(O)CO[C@@]2(C1)OC(=O)[C@H]([C@@H]1CC[C@]34C[C@]13C=C[C@@H]1[C@@]3(C)CC=C5C[C@@H](c6ccccc6)OC[C@]5(C)[C@@H]3CC(=O)[C@]14C)[C@H]2O
mortality at 100 µg/mL [2]: 46.3%

COc1ccc([C@@H]2CC3=CC[C@@]4(C)[C@@H](CC(=O)[C@]5(C)[C@@H]4C=C[C@]46C[C@@]45CC[C@H]6[C@@H]4C[C@]5(C[C@@](C)(OC(=O)C[C@@H](O)c6ccc(O)cc6)CO5)OC4=O)[C@@]3(C)CO2)cc1
EC50 [1]: > 100 microg/cm2 | mortality at 100 µg/mL [2]: 4.8%

C[C@]1(OC(=O)C[C@@H](O)c2ccc(O)cc2)CO[C@@]2(C[C@@H]([C@@H]3CC[C@]45C[C@]34C=C[C@@H]3[C@@]4(C)CC=C6C[C@@H](c7ccccc7)OC[C@]6(C)[C@@H]4CC(=O)[C@]35C)C(=O)O2)C1
EC50 [1]: 78.7 microg/cm2 | IC50 [7]: > 40 µM | mortality at 100 µg/mL [2]: 20.5% | IC50 [8]: 26.8 µM | IC50 [9]: > 40 µM | IC50 [10]: > 40 µM | IC50 [11]: 8.2 µM | zone of inhibition at 50 µg/disc [3]: 12.8 mm | inhibition zone (IZ) [4]: 12.8 mm | zone of inhibition at 50 µg/disc [5]: 12.4 mm | zone of inhibition at 50 µg/disc [6]: 13.8 mm

CC(=O)O[C@@]1(C)CO[C@@]2(C[C@@H]([C@@H]3CC[C@]45C[C@]34C=C[C@@H]3[C@@]4(C)CC=C6C[C@@H](c7ccccc7)OC[C@]6(C)[C@@H]4CC(=O)[C@]35C)C(=O)O2)C1
EC50 [1]: 11.7 microg/cm2 | zone of inhibition at 50 µg/disc [3]: 11.5 mm | inhibition zone (IZ) [4]: 13.8 mm | zone of inhibition at 50 µg/disc [5]: 10.1 mm | diameter of the inhibition zone (DIZ) [6]: inactive
